From patent publication US20230096766A1, “AMINO ACID HAVING FUNCTIONAL GROUP CAPABLE OF INTERMOLECULAR HYDROGEN BONDING, PEPTIDE COMPOUND CONTAINING SAME AND METHOD FOR PRODUCTION THEREOF” (Chugai Seiyaku Kabushiki Kaisha, priority 2018, published 2023)
*1 amine or outer side, *2 acyl side, *3 side chain or, on linkers, in order; H or OH if unused. Where a SMILES comes first, the peptide text is derived from it. Bridges are numbered along the chain shown (N, C = ends). [ ]: non-standard residue; d: D form. The star is where a group is joined. Phe(3-CONHMe,4-OMe) = CNC(=O)c1cc(C[C@H](N)C(=O)O)ccc1OC; Phe(3-OMe,4-CONHMe) = CNC(=O)c1ccc(C[C@H](N)C(=O)O)cc1OC; NMeAbu(4-morpholino) = CN[C@@H](CCN1CCOCC1)C(=O)O; Glu(NHSO2Me) = CS(=O)(=O)NC(=O)CC[C@H](N)C(=O)O; NMePhe(3-Cl) = CN[C@@H](Cc1cccc(Cl)c1)C(=O)O; NMeF = CN[C@@H](Cc1ccccc1)C(=O)O; NMeGABA = CN(CCCC(=O)[*:2])[*:1]; NMeI = CC[C@H](C)[C@H](NC)C(=O)O; NMeL = CN[C@@H](CC(C)C)C(=O)O; NMeV = CN[C@H](C(=O)O)C(C)C; NMeAbu = CC[C@H](NC)C(=O)O; NMeA = CN[C@@H](C)C(=O)O; Piperidide = C1CCN(*)CC1; NBuGly = CCCCNCC(=O)O; Isopentyl = CC(C)CC*; NPrGly = CCCNCC(=O)O; X3 = C[C@H](O)C*; Sar = CNCC(=O)O; tBu = CC(C)(C)*

Assay: in vitro
Settings: human, Caco-2, Caco-2

Row | Compound | Papp [×10⁻⁶ cm/s]
1 | CCCCN1CC(=O)N(C)[C@@H](CC(C)C)C(=O)N[C@@H](CCC(=O)NS(C)(=O)=O)C(=O)N(C)[C@@H](Cc2cccc(Cl)c2)C(=O)N(C)[C@@H](C(C)C)C(=O)N[C@H](C(=O)N2CCCCC2)CC(=O)N[C@H](CC(C)C)C(=O)N(C)[C@@H](Cc2cccc(Cl)c2)C(=O)N[C@@H](CC(C)C)C(=O)N(C)[C@@H](CC)C(=O)N[C@@H]([C@@H](C)O)C1=O [pd61] ([dL][NMePhe(3-Cl)]L[NMeAbu]T[NBuGly][NMeL][Glu(NHSO2Me)][NMePhe(3-Cl)][NMeV]D-Piperidide; lactam N-11) | < 0.094
2 | CCCCN1CC(=O)N(C)[C@@H](CC(C)C)C(=O)N[C@@H](COC(C)(C)C)C(=O)N(C)[C@@H](Cc2ccccc2)C(=O)N(C)[C@@H](C(C)C)C(=O)N[C@H](C(=O)N2CCCCC2)CC(=O)N[C@H](CC(C)C)C(=O)N(C)[C@@H](Cc2ccccc2)C(=O)N[C@@H](CC(C)C)C(=O)N(C)[C@@H](CCN2CCOCC2)C(=O)N[C@@H]([C@@H](C)O)C1=O [pd452] ([dL][NMeF]L[NMeAbu(4-morpholino)]T[NBuGly][NMeL]S(tBu)[NMeF][NMeV]D-Piperidide; lactam N-11) | 1.3

Same assay, conditions: human, Caco-2, Caco-2 (cm/sec)

Row | Compound | Papp [×10⁻⁶ cm/s]
3 | CC[C@H](C)[C@@H]1NC(=O)[C@H](CC(C)C)N(C)C(=O)CN(C)C(=O)C[C@@H](C(=O)N2CCCCC2)NC(=O)[C@H](CC(C)C)N(C)C(=O)[C@H](Cc2ccc(OC)c(C(=O)NC)c2)NC(=O)[C@H](CC(C)C)N(C)C(=O)[C@H](Cc2cccc(Cl)c2)N(C)C(=O)CN(C)C(=O)[C@H]([C@@H](C)O)NC(=O)[C@H](CC(C)C)N(C)C1=O [AP42] ([Sar][NMeL]I[NMeL]T[Sar][NMePhe(3-Cl)][NMeL][Phe(3-CONHMe,4-OMe)][NMeL]D-Piperidide; lactam N-11) | 0.25
4 | CC(C)C[C@H]1C(=O)N[C@@H](Cc2ccc(O)cc2)C(=O)N(C)CC(=O)N(C)[C@@H](C)C(=O)N(C)[C@@H](CC(C)C)C(=O)N[C@@H](COC(C)(C)C)C(=O)N(C)[C@@H](C(C)C)C(=O)N[C@H](C(=O)N2CCCCC2)CC(=O)N(C)CC(=O)N(C)[C@@H](Cc2ccccc2)C(=O)N[C@@H](C(C)C)C(=O)N1C [pd115] ([Sar][NMeF]V[NMeL]Y[Sar][NMeA][NMeL]S(tBu)[NMeV]D-Piperidide; lactam N-11) | 0.22
5 | CC[C@H](C)[C@@H]1NC(=O)[C@H](CC(C)C)N(C)C(=O)CCCN(C)C(=O)C[C@@H](C(=O)N2CCCCC2)NC(=O)[C@H](CC(C)C)N(C)C(=O)[C@H](CC(C)C)N(C)C(=O)[C@H]([C@@H](C)O)NC(=O)[C@H](CC(C)C)N(C)C(=O)[C@H](Cc2ccc(C(=O)NC)c(OC)c2)NC(=O)[C@H](CC(C)C)N(C)C(=O)[C@H](Cc2ccccc2)N(C)C1=O [AP30] ([NMeGABA][NMeL]I[NMeF][NMeL][Phe(3-OMe,4-CONHMe)][NMeL]T[NMeL][NMeL]D-Piperidide; lactam N-11) | 0.19
6 | CCCN1CC(=O)N(C)[C@@H](CC(C)C)C(=O)N[C@@H](COCCC(C)C)C(=O)N(C)[C@@H](Cc2ccccc2)C(=O)N(C)[C@@H](CC(C)C)C(=O)N[C@H](C(=O)N2CCCCC2)CC(=O)N[C@H](C(C)C)C(=O)N(C)[C@@H](Cc2ccccc2)C(=O)N[C@@H](COC[C@H](C)O)C(=O)N(C)[C@@H](CC(C)C)C(=O)N[C@@H]([C@@H](C)O)C1=O [AP61] ([dV][NMeF]S(X3)[NMeL]T[NPrGly][NMeL]S(Isopentyl)[NMeF][NMeL]D-Piperidide; lactam N-11) | 0.51
7 | CC[C@H](C)[C@H]1C(=O)N[C@@H](Cc2ccc(O)cc2)C(=O)N(C)CC(=O)N(C)[C@@H](CC(C)C)C(=O)N[C@H](C(=O)N2CCCCC2)CC(=O)N(C)[C@@H](C)C(=O)N[C@@H](CC(C)C)C(=O)N(C)[C@@H](C)C(=O)N(C)[C@@H](Cc2ccccc2)C(=O)N[C@@H](C(C)C)C(=O)N(C)[C@@H](C)C(=O)N1C [pd116] ([NMeA]L[NMeA][NMeF]V[NMeA][NMeI]Y[Sar][NMeL]D-Piperidide; lactam N-11) | 0.14
8 | CC[C@H](C)[C@@H]1NC(=O)[C@H](CC(C)C)N(C)C(=O)CCCN(C)C(=O)C[C@@H](C(=O)N2CCCCC2)NC(=O)[C@H](CC(C)C)N(C)C(=O)[C@H](C)N(C)C(=O)[C@H](Cc2c[nH]c3ccccc23)NC(=O)[C@H](CC(C)C)N(C)C(=O)[C@H](COC(C)(C)C)NC(=O)[C@H](CC(C)C)N(C)C(=O)[C@H](CC(C)C)N(C)C1=O [pd110] ([NMeGABA][NMeL]I[NMeL][NMeL]S(tBu)[NMeL]W[NMeA][NMeL]D-Piperidide; lactam N-11) | 0.29
9 | CCCCN1CC(=O)N(C)[C@@H](CC(C)C)C(=O)N[C@@H](COC(C)(C)C)C(=O)N(C)[C@@H](Cc2ccccc2)C(=O)N(C)[C@@H](CC(C)C)C(=O)N[C@H](C(=O)N2CCCCC2)CC(=O)N[C@H](C(C)C)C(=O)N(C)[C@@H](C(C)C)C(=O)N[C@@H](Cc2ccc(C(=O)NC)c(OC)c2)C(=O)N(C)[C@@H](CC(C)C)C(=O)N[C@@H]([C@@H](C)O)C1=O [AP27] ([dV][NMeV][Phe(3-OMe,4-CONHMe)][NMeL]T[NBuGly][NMeL]S(tBu)[NMeF][NMeL]D-Piperidide; lactam N-11) | 0.91
